Experiments:
T. brucei TryR = T. brucei TryR (Trypanosoma brucei brucei, UniProt P39051); test: TryR inhibition, high-throughput microplate assay; assay type: biochemical
T. cruzi TryR = T. cruzi TryR (Trypanosoma cruzi, UniProt P28593); test: TryR inhibition, high-throughput microplate assay; assay type: biochemical
Sequence of T. cruzi TryR (P28593 whole entry): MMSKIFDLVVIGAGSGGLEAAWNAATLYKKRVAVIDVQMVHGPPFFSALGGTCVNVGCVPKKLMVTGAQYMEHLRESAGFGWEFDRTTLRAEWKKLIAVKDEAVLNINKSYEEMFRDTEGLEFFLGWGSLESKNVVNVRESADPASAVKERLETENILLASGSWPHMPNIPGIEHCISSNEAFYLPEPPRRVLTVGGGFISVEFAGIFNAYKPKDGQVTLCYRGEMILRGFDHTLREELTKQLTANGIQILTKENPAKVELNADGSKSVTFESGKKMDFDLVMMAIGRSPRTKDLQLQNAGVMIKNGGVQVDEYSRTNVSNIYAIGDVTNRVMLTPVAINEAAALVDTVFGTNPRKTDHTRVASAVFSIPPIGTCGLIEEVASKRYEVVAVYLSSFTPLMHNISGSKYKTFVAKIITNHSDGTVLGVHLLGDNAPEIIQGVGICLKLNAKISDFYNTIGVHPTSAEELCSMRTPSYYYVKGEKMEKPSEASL

Sequence of T. brucei TryR (P39051 whole entry): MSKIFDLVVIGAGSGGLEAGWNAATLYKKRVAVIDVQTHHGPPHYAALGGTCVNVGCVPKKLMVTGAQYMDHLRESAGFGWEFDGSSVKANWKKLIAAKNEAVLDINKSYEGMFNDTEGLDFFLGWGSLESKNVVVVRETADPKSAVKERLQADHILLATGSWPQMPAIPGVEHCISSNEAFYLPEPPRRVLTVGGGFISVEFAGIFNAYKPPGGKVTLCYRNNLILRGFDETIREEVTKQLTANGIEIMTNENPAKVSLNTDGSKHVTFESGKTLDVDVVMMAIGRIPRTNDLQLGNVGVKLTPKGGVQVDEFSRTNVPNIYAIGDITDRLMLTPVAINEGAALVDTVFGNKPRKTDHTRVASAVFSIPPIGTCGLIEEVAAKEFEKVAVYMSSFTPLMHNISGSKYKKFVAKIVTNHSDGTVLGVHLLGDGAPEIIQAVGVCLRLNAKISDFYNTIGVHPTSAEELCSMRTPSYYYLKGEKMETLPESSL

SMILES	inhibitory activity against TryR (in words) (T. brucei TryR)	inhibitory activity against TryR (in words) (T. cruzi TryR)
O=C(CN1C(=O)C2CC=CCC2C1=O)Nc1ccccc1Sc1ccc(Cl)cc1 (stereo not shown) [Compound 12]	neither 12 nor 16 displayed significant inhibitory activity	neither 12 nor 16 displayed significant inhibitory activity
O=C(CN1C(=O)NC2(CCCCCC2)C1=O)Nc1ccccc1Sc1ccccc1 [Compound 16]	neither 12 nor 16 displayed significant inhibitory activity	neither 12 nor 16 displayed significant inhibitory activity
